Assay [1] deals with skin. The assay is described as follows: in vivo homing of phage displaying peptides to skin. On the set-up: species or system mice. Here is the method: For in vivo panning of skin, two month old BALB/c nude mice were used to avoid contamination by hair. The mice were injected intravenously with phage as described above and, after perfusion through the heart, the skin was removed in large sections and placed on an ice cold plate with the hypodermis facing up. The skin was scraped with a scalpel to remove mostly hypodermis, which was then processed for phage recovery as described below.
(§1) Approximately 250 to 300 individual bacterial colonies containing phage recovered from the various organs or tissues were grown for 16 hr in 5 ml NZY/tet. In some experiments, approximately 1000 individual bacteria containing phage were picked and the phage were amplified in 2 ml of NZY/tet or the entire plate containing phage was scraped, pooled and grown in bulk and processed for injection. Where phage were cultured separately, the cultures were pooled and the phage were injected into mice or rats as described above for a second round of in vivo panning. In some experiments, a third or fourth round of panning was performed. Phage DNA was purified from individual bacterial colonies obtained and the DNA sequences encoding the peptides expressed by selected phage were determined (see Koivunen et al., supra, 1994b).
in After two or three rounds of in vivo panning of mice injected with a cyclic CX3CX3CX3C (SEQ ID NO: 25) phage display library, the peptide sequence CVALCREACGEGC (SEQ ID NO: 3), which appeared repeatedly in skin, was identified (Table 1). To determine the specificity of skin homing of the sequence CVALCREACGEGC (SEQ ID NO: 3), phage displaying the peptide was amplified individually, diluted to the same input titer and administered to mice. Following administration, control kidney and brain organ were removed and the number of TU of phage in skin, kidney and brain was determined.
Peptides that were identified more than one time during screening are indicated by an asterisk. For example, 14% of recovered CX3CX3CX3C (SEQ ID NO: 25) phage that homed to head skin had the sequence CVDVCCDGCPVCC (SEQ ID NO: 437). Phage having the sequence RVPLSGDVEH (SEQ ID NO: 438), LRVMSFTSGQ (SEQ ID NO: 439), or RFSVGSLFGS (SEQ ID NO: 440) each constituted 14% of recovered CX10C (SEQ ID NO: 30) phage that homed to head skin.

Assay [2] deals with skin. The assay is described as follows: immunohistologic analysis of skin homing phage. Type of assay: in vivo, mice. As for the experimental part:
(§2) Phage displaying homing peptides were detected in lung, pancreas and skin by immunostaining histologic sections obtained 5 min after administration of phage expressing a lung, pancreas or skin homing peptide (“peptide-phage”) to a mouse. Following administration of the peptide-phage, mice were handled as described above and various organs, including lung, pancreas and skin, were removed and fixed in Bouin's solution (SIGMA). Histologic sections were prepared and reacted with anti-M13 (phage) antibodies (Pharmacia Biotech; see U.S. Pat. No. 5,622,699, supra, 1997; Pasqualini and Ruoslahti, supra, 1996). Visualization of the bound anti-M13 antibody was performed using a second antibody conjugated to peroxidase (SIGMA) according to the manufacturer's instructions.
Experiments were performed in skin using phage displaying the skin homing peptide CVALCREACGEGC (SEQ ID NO: 3). In these experiments, histological samples from the skin as well as control organs and tissues including lung and pancreas were prepared and examined by immunostaining as described above.

The next assay deals with T1, murine MDP (Mus musculus, UniProt P31428).
T1 construct: The amplified 1.3 kb murine MDP cDNA was digested with KpnI and XbaI, and inserted into the same sites of the pcDNA3 expression vector; expressed in transfected cells; host or cells: COS-1 cells, pcDNA3 expression vector
T1 sequence (P31428 17-384): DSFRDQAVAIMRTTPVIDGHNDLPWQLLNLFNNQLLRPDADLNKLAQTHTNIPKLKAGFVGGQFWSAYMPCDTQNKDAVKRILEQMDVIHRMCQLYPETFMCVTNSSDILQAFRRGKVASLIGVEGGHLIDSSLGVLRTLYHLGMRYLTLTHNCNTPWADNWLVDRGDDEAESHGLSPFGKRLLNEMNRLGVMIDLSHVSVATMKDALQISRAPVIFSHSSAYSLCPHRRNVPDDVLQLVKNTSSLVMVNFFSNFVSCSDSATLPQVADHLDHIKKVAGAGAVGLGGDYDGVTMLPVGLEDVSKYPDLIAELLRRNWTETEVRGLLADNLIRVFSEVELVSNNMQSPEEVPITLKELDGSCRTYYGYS
The assay is described as follows: phage binding to COS-1 cells transfected with MDP. The note with it: 5×10^6 COS-1 cells, 10^10 TU phage. As for the experimental part: The COS-1 cell line, which is known to have low or no detectable level of MDP activity, has been used extensively to study MDP structure and function (Keynan et al., supra, 1996; Keynan et al., Biochem, J. 326:47-51 (1997)). COS-1 cells were trasfected with murine MDP and used to assay binding to SEQ ID NOS: 1 and 2 as described below.
For transfection into COS-1 cells, a murine MDP expression vector was prepared as follows. Total mouse lung RNA was isolated using Qiagen RNA purification columns (Qiagen; Santa Clarita, Calif.) and used as a template for first strand cDNA synthesis with reverse transcriptase and a mixture of random hexamers and poly-dT oligonucleotides (GIBCO/BRL; Grand Island, N.Y.). Mouse MDP cDNA (Pasqualini et al., J. Cell Biol. 130:1189-1196 (1995)) was amplified from the cDNA pool by PCR using the oligonucleotide pair: […] (SEQ ID NO: 446), which contains a KpnI adaptor, and […] (SEQ ID NO: 447), which contains an XbaI adaptor, using Taq polymerase from GIBCO/BRL. The amplified 1.3 kb murine MDP cDNA was digested with KpnI and XbaI, and inserted into the same sites of the pcDNA3 expression vector (Invitrogen; Carlsbad, Calif.) using DNA restriction enzymes and T4 DNA ligase from New England Biolabs (Beverly, Mass.). Successful cloning of the murine MDP cDNA was confirmed by DNA sequencing. Transfection of the COS-1 cells was performed with the Superfect Reagent from Qiagen as recommended by the manufacturer.
Phage binding to COS-1 cells transfected with MDP was determined as follows. Briefly, 10^7 COS-1 cells were transfected with 10 μg of either the MDP expression vector or the vector alone. After 48 hours, cells were scraped gently from the dish, washed once, and subjected to the phage binding assay or membrane dipeptidase activity assay described above. For the phage binding assay, 5×10^6 cells and 10^10 transducing units (TU) of phage input were used. For measurement of membrane dipeptidase activity, 10^6 cells were lysed in 100 μl of PBS/octylglycoside without protease inhibitors. A 10 μl aliquot of the extract was used to measure MDP activity.

Assay [3] concerns pancreas. The assay is described as follows: in vivo homing of phage displaying peptides to pancreas. On the set-up: species or system mice. Here is the method: For lung and pancreas, a mixture of phage libraries containing 10^10 TU was diluted in 200 μl DMEM and injected into the tail vein of anesthetized BALB/c mice (2 month old; Harlan Sprague Dawley; San Diego Calif.); AVERTIN (0.017 ml/g) was used as anesthetic (Pasqualini and Ruoslahti, supra, 1996). After 1-4 minutes, mice were snap frozen in liquid nitrogen or, after about 5 minutes of phage circulation, the mice were perfused through the heart with 5-10 ml of DMEM (SIGMA; St. Louis Mo.). To recover the phage, the organs from the perfused mice or partially thawed organs from snap frozen mice were collected and weighed, then were homogenized in 1 ml DMEM-PI (DMEM containing protease inhibitors (PI); phenylmethyl sulfonyl fluoride (PMSF; 1 mM), aprotinin (20 μg/ml), leupeptin (1 μg/ml)).
Organ samples were washed 3 times with ice cold DMEM-PI containing 1% bovine serum albumin (BSA), then directly incubated with 1 ml K91-kan bacteria for 1 hr. Ten ml NZY medium containing 0.2 μg/ml tetracycline (NZY/tet) was added to the bacterial culture, the mixture was incubated in a 37° C. shaker for 1 hr, then 200 μl aliquots were plated in agar plates containing 40 μg/ml tetracycline (tet/agar).
as §1
After two or three rounds of in vivo panning of mice injected with a cyclic CX7C (SEQ ID NO: 24) phage display library, various pancreas homing peptides were identified (Table 3). In particular, the peptide sequence SWCEPGWCR (SEQ ID NO: 4) appeared repeatedly in the pancreas. To determine the specificity of SWCEPGWCR (SEQ ID NO: 4), a phage displaying the sequence was amplified individually, diluted to the same input titer and administered to mice. Following administration, control brain organ was removed and the number of TU of phage in each pancreas and was determined.

Assay [4] deals with pancreas. The assay is described as follows: immunohistologic analysis of pancreas homing phage. In kind it is in vivo, mice. Here is the method: as §2
(§3) Similar experiments were performed in pancreas using phage displaying the pancreas homing peptide, SWCEPGWCR (SEQ ID NO: 4). In these experiments, histological samples of the pancreas as well as control organs and tissues including lung and skin were prepared and examined by immunostaining as described above. […] Moreover, after intravenous injection of phage displaying SWCEPGWCR (SEQ ID NO: 4), the phage was recovered from uterus at a 6× higher level in comparison to unselected phage. Thus, SWCEPGWCR (SEQ ID NO: 4) homes to both pancreas and uterus.

The subject of a further assay is uterus. The assay is described as follows: homing of pancreas homing phage to uterus. Type of assay: in vivo, mice. As for the experimental part:
as §3

These results are taken from patent publication US6784153B1, “Methods of homing molecules to lung using membrane dipeptidase” (The Burnham Institute, priority 1998, dated 2004).

For CVALCREACGEGC [skin homing peptide], in the assay with skin [1] (SKIN), the “% OF MOTIF AMONG ALL CLONES” value was 6%. The skin/brain phage ratio in the assay with skin [1] (SKIN section) stood at 7. In addition, the “phage bound to skin than to kidney or brain” value with skin [1] (individually amplified phage) was determined as 7 ×. In addition, in the assay with skin [1] (mouse, in vivo), the “enriched in skin over unselected phage” value was 7 ×; the “selectivity for skin over unselected phage and over background in brain and kidney” value was 7 fold. Besides, the immunostaining of skin result in the assay with skin [2] (5 min after phage) is “staining in blood vessels of the hypodermis”. In addition, the “staining of lung and pancreas after skin homing phage” value in the assay with skin [2] (control tissues) is “no staining was observed in control the lung and pancreas”. Further, the “phage bound to MDP transfected cells than to mock transfected cells” value with murine MDP is “no specific binding”.

SWCEPGWCR [pancreas homing peptide]: in the assay with pancreas [3] (PANCREAS (value printed on the SKIN heading line)), the “% OF MOTIF AMONG ALL CLONES” value is 9%. In the assay on pancreas [3] (PANCREAS section, pancreas as compared to brain), the pancreas/brain phage ratio is listed as 20. In the assay on pancreas [3] (individually amplified phage), the “phage bound to pancreas than to brain” value was 10 × and up to 20 ×. For the same sequence, in the assay on pancreas [3] (mouse, in vivo), the “enrichment of phage to the pancreas as compared to unselected phage” value is listed as 22 ×; the “selectivity for pancreas over unselected phage and over brain” value turned out to be 20 fold. For the same sequence, in the assay on pancreas [4] (5 min after phage), the immunostaining of pancreas result is “staining in the capillaries and larger blood vessels of the exocrine pancreas”. Also, the “staining of lung and skin after pancreas homing phage” value with pancreas [4] (control tissues) was “nor was any staining observed in lung and skin”. For the same sequence, the “phage recovered from uterus in comparison to unselected phage” value with uterus (after intravenous injection) was 6 ×. The staining of uterus result in the assay on uterus (immunostaining) is given as “some staining of blood vessels within the uterus”.
